Test results published in patent US20250382296A1, “NITROGEN-CONTAINING FUSED THREE RING PRMT5 INHIBITOR, AND PREPARATION METHOD THEREFOR AND PHARMACEUTICAL USE THEREOF” (Abbisko Therapeutics Co., Ltd., priority 2022, published 2025).
pIC50: −log10 of the molar value.

What was measured:
[1] = system: HCT 116 wild-type MTAP cells; assay: Inhibition of proliferation of HCT116 wild-type MTAP cells (CellTiter-Glo, 6 days); type: cell-based; settings: Homo sapiens, HCT-116, 144 h
Description: (§1) 1. HCT 116 MTAP-knockout cells and HCT 116 wild-type MTAP cells were plated in 96-well flat-bottom plates and cultured overnight at 37° C. and […] in McCoy's 5A medium containing 10% fetal bovine serum+1% penicillin-streptomycin.
(§2) 2. The next day, compounds were each dissolved in DMSO, diluted successively with DMSO and medium and then transferred to cell plates; the final concentration of each compound was 10 μM, 4-fold dilution was performed to obtain 9 concentration points, and a DMSO control was provided.
(§3) 3. Cells not treated with compound were subjected to CellTiter-Glo Luminescent Cell Viability Assay (Promega) to detect the cell viability, and reference was made to the kit instructions for the operation; the plates were then placed on an EnVision Multilabel Reader to detect luminescence signals.
(§4) 4. Meanwhile, the cell plates containing cells treated with compounds were cultured continuously at 37° C. and […] CO2 for 6 days.
(§5) 5. Then, the cell viability was also detected by CellTiter-Glo.
(§6) 6. Finally, dose response curves were plotted using the four parameter dose response curve module of GraphPad Prism v 9.2.0 software and proliferation inhibition IC50 (unit: nM) was calculated.

[2] = system: HCT 116 MTAP-knockout cells; assay: Inhibition of proliferation of HCT116 MTAP-knockout cells (CellTiter-Glo, 6 days); type: cell-based, human; settings: for pIC50: Homo sapiens, HCT-116, 144 h, proliferation inhibition, HCT116 MTAP-knockout, 6 days, CellTiter-Glo; for Selectivity: IC50 HCT116 wild-type cells / IC50 HCT116 MTAP-knockout cells
Description: as §1, §2, §3, §4, §5, §6

| Structure (SMILES) | pIC50 [1] | pIC50 [2] | Selectivity [2] |
| --- | --- | --- | --- |
| Cc1cc2nc(N)c3cncn3c2cc1C(=O)N1CC[C@@H](C)C[C@@H]1c1ccc2scnc2c1 [Example 226, (4-amino-7-methylimidazo[1,5-a]quinoxalin-8-yl)((2R,4R)-2-(benzo[d]thiazol-5-yl)-4-methylpiperidin-1-yl)methanone] | < 5.00 | 6.49 | >31 |
| C[C@H]1CC[C@H](c2ccc3scnc3c2)N(C(=O)c2ccc3nc(N)c4cncn4c3c2)C1 [Example 227, (4-aminoimidazo[1,5-a]quinoxalin-8-yl)((2R,5S)-2-(benzo[d]thiazol-5-yl)-5-methylpiperidin-1-yl)methanone] | 5.46 | 7.92 | 283 |
| Cc1cc2nc(N)c3cncn3c2cc1C(=O)N1C[C@@H](C)CC[C@@H]1c1ccc2scnc2c1 [Example 228, (4-amino-7-methylimidazo[1,5-a]quinoxalin-8-yl)((2R,5S)-2-(benzo[d]thiazol-5-yl)-5-methylpiperidin-1-yl)methanone] | 5.27 | 6.99 | 52.1 |
| Cc1ncc2c(N)nc3ccc(C(=O)N(c4cnn(C)c4)[C@@H]4COc5cc(C(F)(F)F)ccc54)cc3n12 [Example 229, (S)-4-amino-1-methyl-N-(1-methyl-1H-pyrazol-4-yl)-N-(6-(trifluoromethyl)-2,3-dihydrobenzofuran-3-yl)imidazo[1,5-a]quinoxaline-8-carboxamide] | 6.03 | 7.80 | 58.4 |
| Cc1cc2nc(N)c3cncn3c2cc1C(=O)N(C)Cc1ccc(C(F)(F)F)cn1 [Example 230, 4-amino-N,7-dimethyl-N-((5-(trifluoromethyl)pyridin-2-yl)methyl)imidazo[1,5-a]quinoxaline-8-carboxamide] | 5.12 | 6.97 | 70.1 |
| Cc1cc2nc(N)c3cnc(C)n3c2cc1C(=O)N(C)Cc1ccc(C(F)(F)F)cn1 [Example 231, 4-amino-N,1,7-trimethyl-N-((5-(trifluoromethyl)pyridin-2-yl)methyl)imidazo[1,5-a]quinoxaline-8-carboxamide] | < 5.00 | 6.76 | >57.5 |
| Cn1cc(N(C(=O)c2cc3c(cc2F)nc(N)c2cccn23)[C@@H]2COc3cc(C(F)(F)F)ccc32)cn1 [Example 233, (S)-4-amino-7-fluoro-N-(1-methyl-1H-pyrazol-4-yl)-N-(6-(trifluoromethyl)-2,3-dihydrobenzofuran-3-yl)pyrrolo[1,2-a]quinoxaline-8-carboxamide] | 6.25 | 7.77 | 33.2 |
